For one test, the target named is Protein Kinase C ("PKC"). Nature of the test: Protein Kinase C (PKC) in vitro inhibition (histone III-S phosphorylation). Format: biochemical. The following applies: partially purified rat brain PKC, 5 μM ATP, 23° C., 15 minutes. Here is the method:
A. Protein Kinase C ("PKC") Protocol
Protein Kinase C (PKC) was partially purified from rat brain by chromatography on DEAE-Sephacel according to Shearman et al, Methods in Enzymology […] (1989) and Bishop et al, Biochemical Pharmacology 40:2129-2135 (1990)which are hereby incorporated by reference. PKC was assayed in a reaction mixture (0.25 mL total volume) containing: 20 mM Tris-HCl (pH 7.5); 200 μg/mL histone III-S 10 mM MgCl2; 5 μM [γ-^32 ] ATP (4×10^6 cpm/nmol); 200 μM CaCl2; 32 μg/mL phosphatidylserine; 1.6 μg/mL 1-oleoyl-2-acetyl glycerol and various concentrations of compounds of formula I of the invention were added from stock solutions in dimethylsulfoxide (DMSO). The final concentration of DMSO in the reaction was 2%. Reactions were started by addition of approximately 7 μg of partially purified PKC and allowed to proceed at 23° C. for 15 minutes. Reactions were terminated by addition of 1 mL of ice-cold 15% trichloracetic acid and 1 mL of cold 0.5 mg/mL bovine serum albumin to precipitate the histone III-S substrate. After 10 minutes on ice, precipitated phosphoproteins were collected on Whatman GF/C filters using a Brandel cell harvester. Filters were placed in scintillation vials with 5 mL of Ready Safe scintillation cocktail and radioactivity trapped on the filter was quantitated by liquid scintillation counting. Percent inhibition of PKC activity was calculated relative to the activity observed in the DMSO controls.

The subject of test [1] is HT1080 human fibrosarcoma cells. Briefly: Tumor Cell Invasion Assay (Matrigel). The following applies: HT-1080, @ 45 μg/mL, 5 hours at 37° C. Format: cell-based. The protocol: Tumor Cell Invasion Assay
The cell invasion assay quantitates the ability of malignant cells to invade a reconstituted basement membrane matrix. The assay is performed essentially as described in the two articles which are cited at the end of this sentence and which are herein incorporated by reference. Kramer et al Invasion of reconstituted basement membrane matrix by metastatic tumor cells. Cancer Res. 46: […]; and Albini et al A Rapid in vitro assay for quantitating the invasive potential of tumor cells. Cancer Res. 3239-3245, 198. Modifications were made to permit evaluation of pharmacologic effectors in this system and to increase screening throughput.
Polyvinylpyrrolidone-free polycarbonate filters (25×80 mm; 8 μm pore size (Nucleopore, Pleasantan, Calif.) were coated with 100 μg human fibronectin (Boehringer-Mannheim Corp., Indianapolis, Ind.) for 1 hour, permitted to air dry 5 to 10 minutes, and then coated overnight with Matrigel (500 μg/filter; Collaborative Research, Bedford, Mass.). Filters were then rehydrated with serum-free DMEM and assembled into 48-microwell chemotaxis chambers (Neuroprobe, Cabin Johbn, Md.). See Blood et al Identification of a tumor cell receptor for VGVAPG, an elastin-derived chemotactic peptide. J. Cell Biol. 107:1987-1994, 1988 which is herein incorporated by reference. Compounds tested were placed in upper wells of the chambers with HT1080 human fibrosarcoma cells (3.5×10^4 cells/well). For primary screens the final concentration of compounds was 45 μg/ml.
Chambers were incubated for 5 hours at 37° C. in a 5% CO2 humidified atmosphere. After incubation chambers were disassembled and the filters were fixed and stained with Diff-Quik reagents (Baxter Scientific, McGaw Park, Ind.). […] The filter was then mounted between 2 glass slides and tumor cells that had invaded the Matrigel barrier in each microwell were quantitated as "% area covered by cells" with a Cue-2 Image Analysis System (Olympus Corp., Lake Success, N.Y.). When assayed under these conditions HT1080 cells (with or without Dimethylsulfoxide (DMSO) as a vehicle control) typically invade such that 34-40% surface is covered by cells and an invasion to this degree is defined as 100% invasion for the purposes of this test. Effects of compounds on the invasion are expressed as % inhibition based on the value obtained with vehicle control.

Another test concerns Mouse skin. Briefly: Mouse Skin Assay (TPA-induced blister formation). Format: in vivo. The conditions noted are these: compound in acetone (25 μl), then TPA (12.5 μl); evaluated 18 hours after treatment. Here is the method: Mice were treated first with compounds dissolved in acetone (25 μl), and then 30 seconds with TPA (12.5 μl). Blister formation was evaluated 18 hours after treatment. Each mouse was scored on a scale of 1-4 where 4 equals presence of a complete blister, 3 equals slight reduction in blister formation, 2 equals a 50% reduction in blister formation and 1 equals a complete absence of blisters.

The test system of test [2] is Superoxide generation in human neutrophils. Nature of the test: Neutrophil test: inhibition of superoxide generation in human neutrophils. The conditions noted are these: 0.25 h, SO release induced by fMLP (100 nM) or PMA (100 nM), stimulus not stated, 15 minutes at 37° C. Format: cell-based. From the text: Inhibition of Superoxide Generation in Human Neutrophils
One of the histological changes which occurs in psoriasis is infiltration of neutrophils into epidermis and dermis. Superoxide (SO) generation by neutrophils causes oxidative tissue damage during inflammatory processes. PKC plays an essential role in SO release in neutrophils. Formyl peptides (fMLP), important chemoattractants involved in cell recruitment to local inflammatory sites, promote the release of SO anion. The tumor promoting phorbol ester, phorbol-12 myristate-13-acetate (PMA), also induces SO release.
Neutrophils were prepared from human peripheral blood. SO release was induced by fMLP (100 nM) or PMA (100 nM) and measured as SO dismutase-inhibitable reduction of cytochrome c. Preincubation of the compound tested with 3-5×10^6 cells was for 15 minutes in the presence of cytochalasin B ([…]) before addition of the stimulant, fMLP or PMA. 15 minutes after stimulation at 37° C., the reaction was stopped. The quantity of SO anion release was determined as the difference between the absorbance at 550 nm in the presence and absence of SO dismutase.
Antiinflammatory activity of the compounds of the invention was determined by use of the processes set forth in the following literature which is hereby incorporated by reference. Fischer et al Carcinogenesis 11:[…]; and Gupta et al Soc. Inv. Dermotol 91:5, 486-491, 1988 and Nakadate et al J. Pharmacolo. 38 161-168,(1985); and Viaje et al Cancer Res. 37,1530-1536, 1977.

The mark [3] stands for this setting: read-out: IN VITRO INHIBITION OF PKC IC50 (nanomolar) except where otherwise indicated.
[4] abbreviates: read-out: IN VITRO INHIBITION OF PKC IC50 (unit indicated in cell).

Like-named read-outs stand apart in the source and are kept apart here.

As a reminder, the IC50 is the concentration needed to halve the response being measured. As usually defined, the inhibition is the relative decrease from the control value, in per cent. Read a high inhibition as a response far below the control. As for `O=C(O)CN1Cn2c3ccccc3c3c4c(c5c6ccccc6n(c5c32)C1)C(=O)NC4=O` [Compound 7], at Protein Kinase C ("PKC") (setting [3]), the IC50 is 480 nM. The compound also had an inhibition at 45 µg/mL in test [1] of 0%.
In the same order, the values of `CN(C)CCN1Cn2c3ccccc3c3c4c(c5c6ccccc6n(c5c32)C1)C(=O)NC4=N` [Compound 8] are 160 nM and 46%.
For the compound `O=C1NC(=O)c2c1c1c3ccccc3n3c1c1c2c2ccccc2n1CS(=O)(=O)C3` [Compound 26], the “Mouse Skin (active/inactive by visual evaluation of blister formation)” value in the test with Mouse skin was “inactive”. Further, the values for the IC50 (at Protein Kinase C ("PKC") (setting [3]); in test [2]) were 2 nM and 1600 nM, respectively.
As for `O=C1NC(=O)c2c1c1c3ccccc3n3c1c1c2c2ccccc2n1CNC3` [Compound 4], the concentration for half-maximal inhibition (IC50) at Protein Kinase C ("PKC") (setting [3]) worked out at 145 nM. The compound further showed an inhibition at 45 µg/mL in test [1] of 86%.
Regarding `O=C1NC(=O)c2c1c1c3ccccc3n3c1c1c2c2ccccc2n1CN(O)C3` [Compound 3], the IC50 on Protein Kinase C ("PKC") (setting [3]) was found to be 90 nM. Also, in test [1], testing at 45 µg/mL gave an inhibition of 48%.
Take `C[C@@H]1n2c3ccccc3c3c4c(c5c6ccccc6n(c5c32)[C@@H](C)S1(=O)=O)C(=O)NC4=O` (relative stereo) [trans-25]: the IC50 on Protein Kinase C ("PKC") (setting [3]) was 120 nM.
As for `O=C1NCc2c1c1c3ccccc3n3c1c1c2c2ccccc2n1CSC3` [Compound 19], the IC50 on Protein Kinase C ("PKC") (setting [3]) is 7 nM. The compound also had an inhibition at 45 µg/mL in test [1] of 100%.
On to `N=C1NC(=O)c2c1c1c3ccccc3n3c1c1c2c2ccccc2n1CN(Cc1ccccc1)C3` [Compound 1], for which the IC50 on Protein Kinase C ("PKC") (setting [4]) is greater than 5000 nM.
Turning to `N=C1NC(=O)c2c1c1c3ccccc3n3c1c1c2c2ccccc2n1CSC3` [Compound 17], the IC50 at Protein Kinase C ("PKC") (setting [3]) was 24 nM; in test [2], greater than 10000 nM. The compound also showed an inhibition at 45 µg/mL in test [1] of 53%.
Consider `O=C1NC(=O)c2c1c1c3ccccc3n3c1c1c2c2ccccc2n1CN(Cc1ccccc1)C3` [Compound 2], for which the IC50 at Protein Kinase C ("PKC") (setting [4]) is greater than 50000 nM. Further, at 45 µg/mL the inhibition in test [1] was 35%.
In the case of `C[C@@H]1n2c3ccccc3c3c4c(c5c6ccccc6n(c5c32)[C@H](C)S1(=O)=O)C(=O)NC4=O` [cis-25], the IC50 at Protein Kinase C ("PKC") (setting [3]) was determined as 2.4 nM.
Regarding `O=C1NC(=O)c2c1c1c3ccccc3n3c1c1c2c2ccccc2n1COC3` [Compound 16], on Protein Kinase C ("PKC") (setting [3]), the IC50 amounted to 11 nM. In test [1], this compound had an inhibition at 45 µg/mL of 46%.
Turning to `O=C1NCc2c1c1c3ccccc3n3c1c1c2c2ccccc2n1CS(=O)(=O)C3` [Compound 23], the “Mouse Skin (active/inactive by visual evaluation of blister formation)” value in the test with Mouse skin was “active”. Further, the IC50 on Protein Kinase C ("PKC") (setting [3]) worked out at 5 nM; in test [2], 900 nM. The same compound returned an inhibition at 45 µg/mL in test [1] of 57%.
As to `O=C1NC(=O)c2c1c1c3ccccc3n3c1c1c2c2ccccc2n1C[S+]([O-])C3` [Compound 20], the IC50 on Protein Kinase C ("PKC") (setting [3]) was 19 nM; in test [2], greater than 10000 nM.
`CN1Cn2c3ccccc3c3c4c(c5c6ccccc6n(c5c32)C1)C(=O)NC4=O` [Compound 6]: the IC50 on Protein Kinase C ("PKC") (setting [3]) is 86 nM. Also, in test [1], the inhibition at 45 µg/mL was found to be 66%.
The corresponding values for `CN(C)CCN1Cn2c3ccccc3c3c4c(c5c6ccccc6n(c5c32)C1)C(=O)NC4=O` [Compound 9] are 120 nM and 52%.
In the same order, the values of `N=C1NC(=O)c2c1c1c3ccccc3n3c1c1c2c2ccccc2n1COC3` [Compound 15] are 62 nM and 30%.
The corresponding values for `COCCOCCOCCN1Cn2c3ccccc3c3c4c(c5c6ccccc6n(c5c32)C1)C(=O)NC4=O` [Compound 12] are roughly 100 nM and 20%.
With `CN1Cn2c3ccccc3c3c4c(c5c6ccccc6n(c5c32)C1)C(=O)NC4=N` [Compound 5], the IC50 at Protein Kinase C ("PKC") (setting [3]) is 150 nM. Also, at 45 µg/mL the inhibition in test [1] was 46%.
For the compound `O=C1NC(=O)c2c1c1c3ccccc3n3c1c1c2c2ccccc2n1CSC3` [Compound 18], the figures for the half-inhibitory concentration (IC50) (on Protein Kinase C ("PKC") (setting [3]); in test [2]) were 14 nM and greater than 10000 nM, respectively. In test [1], this compound gave an inhibition at 45 µg/mL of 18%.
`COCCOCCOCCN1Cn2c3ccccc3c3c4c(c5c6ccccc6n(c5c32)C1)C(=O)NC4=N` [Compound 11]: the concentration for half-maximal inhibition (IC50) on Protein Kinase C ("PKC") (setting [3]) was roughly 500 nM. 45 µg/mL produced 42% inhibition in test [1].
In the same order, the values of `CN1Cn2c3ccccc3c3c4c(c5c6ccccc6n(c5c32)C1)C(=O)NC4` [Compound 13] are 90 nM and 26%.
In the same order, the values of `O=C1NC(=O)c2c1c1c3ccccc3n3c1c1c2c2ccccc2n1CN(CCO)C3` [Compound 10] are 17 nM and 72%.
